According to publication PMC6131539, “Behavioral Effects of a Potential Novel TAAR1 Antagonist” (Frontiers in Pharmacology, 2018):
pKi: −log10 of the molar value.

Tests used:
[1] = system: WT littermates (C57BL/6J x 129S2/Sv); experiment: Stereotypic counts, co-injection with cocaine, WT littermates; format: in vivo, mice; settings: 15 and 25 mg/kg co-injected with cocaine 10 mg/kg
Procedure: (§1) Experimentally naïve mice, of at least 12 weeks of age, were used for all behavioral experiments. The mice were randomly assigned to treatment or control groups, balanced by sex and weight. Locomotor activity was assessed using the automated locomotor analysis monitors (Omnitech Electronics, Columbus, OH, United States). The apparatus included four open field monitors. Each Open Field monitor consisted of sets of 16 light beams arrayed in the horizontal X and Y axes. The hardware detected beams broken by the animal, which allowed the software to determine the location of the mouse in the cage. Total distance covered by mice was used to characterize locomotor activity of the animals. The monitors were divided into four compartments (20 cm × 20 cm). Animals were tested individually for defined periods with 5-min intervals. The mice were first weighed and then placed into the apparatus, allowing for 30 min habituation. […] The locomotor activity was then measured for additional 1 h. […]
Supplementary file Image_2.TIF: FIGURE S2 In vivo studies with TAAR1-KO mice and compound 22 on stereotypic counts activity. […] The sum of stereotypic counts was assessed over 60 min after the injection of amphetamine and compound 22 in WT (solid bars) or TAAR1-KO mice (spotted bars). […] The sum of stereotypic counts was assessed over 60 min following the injection in WT (solid bars) or TAAR1-KO mice (dotted bars). […]

[2] = target: Norepinephrine Transporter (Homo sapiens, UniProt P23975); experiment: PDSP binding, secondary screen
Procedure: (§2) This was achieved through the identification of potential pharmacological targets of compound 22 using the Psychoactive Drug Screening Program (PDSP) at University of North Carolina-Chapel-Hill. PDSP provides a platform for screening novel psychoactive compounds on human proteins expressed in the central nervous system in order to identify their biological target(s) ([Besnard et al., 2012]). Binding studies were done on 47 targets at a single dose of compound 22 (10 μM; Supplementary Table S1). This primary screen yielded a total of 5 hits for compound 22 (Table 2). These hits were the serotonin, dopamine, and norepinephrine transporters, as well as the sigma 1 and sigma 2 receptors.

[3] = target: Serotonin Transporter (Homo sapiens, UniProt P31645); experiment: PDSP binding, secondary screen
Procedure: as §2

[4] = target: Dopamine Transporter (Homo sapiens, UniProt Q01959); experiment: PDSP binding, secondary screen
Procedure: as §2

[5] = system: WT littermates (C57BL/6J × 129S2/Sv); experiment: Amphetamine-induced locomotor activity, co-injection, WT littermates; format: in vivo, mice; settings: 5 mg/kg co-injected with amphetamine 2 mg/kg, p = 0.049
Procedure: (§3) The Taarl^-/- (TAAR1-KO) mice were obtained from Lundbeck ([Wolinsky et al., 2007]). All wild type (WT) and TAAR1-KO mice used for experiments were generated from TAAR1-KO heterozygous mice in a C57BL/6J x 129S1/Sv mixed background.
Experimentally naïve mice, of at least 12 weeks of age, were used for all behavioral experiments. The mice were randomly assigned to treatment or control groups, balanced by sex and weight. Locomotor activity was assessed using the automated locomotor analysis monitors (Omnitech Electronics, Columbus, OH, United States). The apparatus included four open field monitors. Each Open Field monitor consisted of sets of 16 light beams arrayed in the horizontal X and Y axes. The hardware detected beams broken by the animal, which allowed the software to determine the location of the mouse in the cage. Total distance covered by mice was used to characterize locomotor activity of the animals. The monitors were divided into four compartments (20 cm × 20 cm). Animals were tested individually for defined periods with 5-min intervals. The mice were first weighed and then placed into the apparatus, allowing for 30 min habituation. Following the habituation, the mice were removed from the al apparatus and injected with drugs (see below for administration) or vehicle and returned immediately to the locomotor chamber.

[6] = system: C57BL/6J mice; experiment: Stereotypic counts, co-injection with amphetamine, C57BL/6J mice; format: in vivo; settings: 5 and 20 mg/kg co-administered with amphetamine 2 mg/kg; sum over 60 min
Procedure: as §1
(A) Wild type C57BL/6J mice were first habituated for 30 min followed by the co-injection of amphetamine (2 mg/kg) and saline or compound 22 at doses 5, 15, 20, 25, 30, and 50 mg/kg. The locomotor activity was assessed for 60 min after the injection. Sum of stereotypic counts assessed over 60 min after the injection of amphetamine and compound 22. […] The locomotor activity was assessed for 60 min after the injection. […]

[7] = system: TAAR1-KO mice; experiment: Cocaine-induced locomotor activity, co-injection, TAAR1-KO mice; format: in vivo; settings: 5, 15 and 25 mg/kg co-injected with cocaine 10 mg/kg
Procedure: as §3, §1
The locomotor activity was assessed for 60 min following the injection. […]

Dopamine Transporter, sequence (Q01959 whole entry): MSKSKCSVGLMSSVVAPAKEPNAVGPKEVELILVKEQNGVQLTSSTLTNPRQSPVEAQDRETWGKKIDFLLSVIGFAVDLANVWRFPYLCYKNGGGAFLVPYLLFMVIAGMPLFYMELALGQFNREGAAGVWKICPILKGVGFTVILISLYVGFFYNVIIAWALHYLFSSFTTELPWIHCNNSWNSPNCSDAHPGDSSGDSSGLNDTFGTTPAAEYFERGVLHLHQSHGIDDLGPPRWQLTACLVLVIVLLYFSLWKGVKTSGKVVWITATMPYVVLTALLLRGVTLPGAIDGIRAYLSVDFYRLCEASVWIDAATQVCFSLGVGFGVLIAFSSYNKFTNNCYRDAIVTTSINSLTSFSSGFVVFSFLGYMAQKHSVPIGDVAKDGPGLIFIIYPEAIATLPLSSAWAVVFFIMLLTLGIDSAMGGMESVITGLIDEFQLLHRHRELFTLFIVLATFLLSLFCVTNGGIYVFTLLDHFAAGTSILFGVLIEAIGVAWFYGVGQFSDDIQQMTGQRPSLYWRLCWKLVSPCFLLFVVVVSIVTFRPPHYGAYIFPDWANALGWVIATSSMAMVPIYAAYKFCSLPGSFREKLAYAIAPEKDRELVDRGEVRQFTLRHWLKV
Norepinephrine Transporter, sequence (P23975 whole entry): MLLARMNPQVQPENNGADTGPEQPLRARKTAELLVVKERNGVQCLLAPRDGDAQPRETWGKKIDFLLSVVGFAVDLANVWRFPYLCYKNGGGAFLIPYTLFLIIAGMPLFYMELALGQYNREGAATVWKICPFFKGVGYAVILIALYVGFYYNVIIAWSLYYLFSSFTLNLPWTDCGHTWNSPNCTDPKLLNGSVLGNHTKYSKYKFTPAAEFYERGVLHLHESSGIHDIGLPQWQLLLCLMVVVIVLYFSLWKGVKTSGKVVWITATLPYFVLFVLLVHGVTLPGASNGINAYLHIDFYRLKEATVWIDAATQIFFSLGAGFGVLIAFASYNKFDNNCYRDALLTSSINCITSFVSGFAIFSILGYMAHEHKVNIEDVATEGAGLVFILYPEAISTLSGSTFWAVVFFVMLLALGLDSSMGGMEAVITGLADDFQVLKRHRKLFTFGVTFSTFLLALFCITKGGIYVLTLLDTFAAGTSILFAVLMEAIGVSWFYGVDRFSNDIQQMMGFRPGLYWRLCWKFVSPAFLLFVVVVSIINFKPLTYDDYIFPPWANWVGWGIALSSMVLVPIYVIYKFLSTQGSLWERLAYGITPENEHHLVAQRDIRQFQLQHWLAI
Serotonin Transporter, sequence (P31645 whole entry): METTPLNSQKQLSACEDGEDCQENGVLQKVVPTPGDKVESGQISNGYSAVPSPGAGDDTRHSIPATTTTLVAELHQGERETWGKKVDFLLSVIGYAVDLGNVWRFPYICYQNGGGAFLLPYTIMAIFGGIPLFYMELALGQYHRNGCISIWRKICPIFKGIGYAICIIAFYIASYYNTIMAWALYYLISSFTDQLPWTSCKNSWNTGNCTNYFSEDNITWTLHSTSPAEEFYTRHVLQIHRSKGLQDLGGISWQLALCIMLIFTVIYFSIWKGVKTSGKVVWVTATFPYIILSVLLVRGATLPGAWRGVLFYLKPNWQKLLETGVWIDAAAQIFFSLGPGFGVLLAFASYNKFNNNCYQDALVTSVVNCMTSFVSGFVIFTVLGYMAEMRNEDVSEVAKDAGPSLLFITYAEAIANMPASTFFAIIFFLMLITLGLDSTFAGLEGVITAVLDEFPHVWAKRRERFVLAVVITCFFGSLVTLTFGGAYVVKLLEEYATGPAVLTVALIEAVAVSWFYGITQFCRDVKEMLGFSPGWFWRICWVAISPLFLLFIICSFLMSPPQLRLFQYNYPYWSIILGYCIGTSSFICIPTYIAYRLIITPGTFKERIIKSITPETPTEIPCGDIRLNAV

In the case of `Clc1ccc(CNCc2ccc(Cn3cncn3)cc2)c(Cl)c1` [compound 22], the stereotypic counts [1] was “enhanced stereotypic counts”, the pKi [2] was 5.72 and the pKi [3] was 5.74. The pKi [4] was 5.98, the “potentiation of amphetamine locomotor response” value [5] was 44% and the stereotypic counts [6] was “statistically significant increase in stereotypic counts”. The “effect on locomotor stimulating effects of cocaine” value [7] was “significantly potentiate”.
